Assay: Assays for synthesizing FDS-LNTβNHCbz (48) from S-LNF-IIβNHCbz (37)
Format: biochemical
Settings: 30° C., analyzed by HRMS at 24 hours and 72 hours
Method: Assays for synthesizing FDS-LNTβNHCbz (48) from S-LNF-IIβNHCbz (37). Assays were carried out at 30° C. in a total volume of 10 μL in Tris-HCl buffer (100 mM, pH 7.5) containing (10 mM), CMP-Neu5Ac (15 mM), MgCl2 (20 mM), MBP-Δ50hST6GALNAC V_ext20-Hiss ([…]), MBP-Δ50hST6GALNAC V_V99M-His6, or MBP-Δ50hST6GALNAC V_V99M_ext20-His6. The reactions were analyzed by HRMS at 24 hours and 72 hours. The formation of FDS-LNTβNHCbz (48) was observed (FIGS. 71A and 71B), and the conversion was around 40-50% after 72 h incubation using MBP-Δ50hST6GALNAC V_ext20-His6.

Q: For “MBP-Δ50hST6GALNAC V_V99M-His6: V99M mutant of recombinant human ST6GALNAC V with N-terminal MBP and C-terminal His6”, which “formation of FDS-LNTβNHCbz (48)” value is on record?
A: formation of the target product was also observed
